Test [1] concerns the target T1, α4β2-containing receptor subtype (Rattus norvegicus, UniProt P09483+P12390).
T1 construct: Striata from two rats were dissected, pooled, and homogenized; from tissue; host or cells: rat striatal membranes
Nature of the test: [3H]-NIC binding assay, rat striatal membranes. The note with it: compared with NONI, NDNI, DHβE. On the procedure:
Striata from two rats were dissected, pooled, and homogenized with a Tekmar polytron in 10 vol of ice-cold modified Krebs-HEPES buffer (20 mM HEPES, 118 mM NaCl, 4.8 mM KCl, 2.5 mM CaCl2, 1.2 mM MgSO4, adjusted to pH 7.5). The homogenates were incubated at 37° C. for 5 minutes and centrifuged at 15,000 g for 20 minutes. The pellet was resuspended in 10 volumes of ice-cold MilliQ water, incubated for 5 minutes at 37° C., and centrifuged at 15,000 g for 20 minutes. The second pellet was then resuspended in 10 volumes of fresh ice-cold 10% Krebs-HEPES buffer, incubated at 37° C., and centrifuged at 15,000 g for 20 minutes. The latter sequence of resuspension, incubation, and centrifugation was repeated. The pellet was frozen under fresh 10% Krebs-HEPES buffer and stored at −40° C. until assayed. Upon assay, the pellet was resuspended in the Krebs-HEPES buffer, incubated at 37° C. for 5 minutes, and centrifuged at 15,000 g for 20 minutes. The final pellet was resuspended in 3.6 ml ice-cold MilliQ water which provided for approximately 200 μg protein per 100 μl aliquot. Competition assays were performed in triplicate in a final volume of 200 μl Krebs-HEPES buffer containing […] Tris buffer (pH 7.5 at 4° C.). Reactions were initiated by addition of 100 μl of membrane suspension to […] [^3H]-NIC (50 μl). and one of at least nine concentrations of analog (50 μl). After a 90 minutes incubation at […], reactions were terminated by dilution of the samples with 3 ml of ice-cold Krebs-HEPES buffer followed immediately by filtration through Whatman GF/B. glass fiber filters (presoaked in 0.5% polyethyleneimine) using a Brandel Cell Harvester. Filters were rinsed three times with. 3 ml of ice-cold Krebs-HEPES buffer, transferred to scintillation vials, and 5 ml scintillation cocktail (Research Products International Corp., Mt. Prospect, Ill.) added. Nonspecific binding determined in triplicate was defined as binding in the presence of 10 μM NIC. Binding parameters were determined using the weighted, least squares regression.
The conformationally restricted nicotine analogs were evaluated for their ability to displace [^3H]-NIC binding from rat striatal membranes.

Test [2] addresses T2, α7-type neuronal nicotinic acetylcholine receptors (Rattus norvegicus, UniProt Q05941).
T2 construct: The brain tissue was homogenized with a Tekmar Polytron; from tissue; host or cells: male Sprague-Dawley rat brain membranes (whole brain without cortex, striatum and cerebellum)
Kind of test: [3H]-MLA binding assay, rat brain membranes. The note with it: for remaining activity at 10 µM: compound 10 μM, 2.5 nM [3H]-MLA, whole brain binding relative to control.

Test [3] addresses T1, α4β2-containing receptor subtype. Kind of test: [3H]-NIC binding assay, rat striatal membranes. To be noted: for Specific binding of [3H]-NIC in the presence of compound: 3 nM [3H]-NIC, mean ± S.E.M of 3 experiments.

Like-named read-outs stand apart in the source and are kept apart here.

T2 sequence (Q05941 23-502): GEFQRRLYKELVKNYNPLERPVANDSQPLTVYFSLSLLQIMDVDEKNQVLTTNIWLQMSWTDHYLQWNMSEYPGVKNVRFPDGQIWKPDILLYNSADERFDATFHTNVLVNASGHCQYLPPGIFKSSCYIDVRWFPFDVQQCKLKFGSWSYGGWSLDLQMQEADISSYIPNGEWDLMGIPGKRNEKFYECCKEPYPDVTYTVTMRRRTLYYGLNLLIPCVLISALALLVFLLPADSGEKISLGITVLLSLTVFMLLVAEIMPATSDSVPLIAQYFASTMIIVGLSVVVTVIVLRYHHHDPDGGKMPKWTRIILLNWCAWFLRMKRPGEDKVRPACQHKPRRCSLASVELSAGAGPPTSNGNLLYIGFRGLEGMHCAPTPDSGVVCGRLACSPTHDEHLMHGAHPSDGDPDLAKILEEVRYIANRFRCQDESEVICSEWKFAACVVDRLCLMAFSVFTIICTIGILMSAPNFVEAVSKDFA
T1 sequence (P09483 31-630): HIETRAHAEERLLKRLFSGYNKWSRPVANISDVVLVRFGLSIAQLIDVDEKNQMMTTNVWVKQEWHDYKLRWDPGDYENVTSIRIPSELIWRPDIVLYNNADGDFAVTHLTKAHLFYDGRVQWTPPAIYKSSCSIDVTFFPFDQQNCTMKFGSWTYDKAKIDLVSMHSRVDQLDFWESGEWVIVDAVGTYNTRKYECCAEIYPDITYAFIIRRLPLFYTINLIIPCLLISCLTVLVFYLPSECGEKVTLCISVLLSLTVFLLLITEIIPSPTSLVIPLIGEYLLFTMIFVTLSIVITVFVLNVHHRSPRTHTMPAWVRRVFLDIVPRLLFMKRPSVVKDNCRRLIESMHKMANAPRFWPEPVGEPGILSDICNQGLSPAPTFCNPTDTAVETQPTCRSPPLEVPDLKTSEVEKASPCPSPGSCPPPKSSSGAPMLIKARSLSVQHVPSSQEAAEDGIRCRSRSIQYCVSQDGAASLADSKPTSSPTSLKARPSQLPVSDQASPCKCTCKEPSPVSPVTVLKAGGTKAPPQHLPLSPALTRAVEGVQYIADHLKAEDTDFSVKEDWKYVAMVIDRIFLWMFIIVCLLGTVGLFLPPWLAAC
T1 sequence (P12390 25-500): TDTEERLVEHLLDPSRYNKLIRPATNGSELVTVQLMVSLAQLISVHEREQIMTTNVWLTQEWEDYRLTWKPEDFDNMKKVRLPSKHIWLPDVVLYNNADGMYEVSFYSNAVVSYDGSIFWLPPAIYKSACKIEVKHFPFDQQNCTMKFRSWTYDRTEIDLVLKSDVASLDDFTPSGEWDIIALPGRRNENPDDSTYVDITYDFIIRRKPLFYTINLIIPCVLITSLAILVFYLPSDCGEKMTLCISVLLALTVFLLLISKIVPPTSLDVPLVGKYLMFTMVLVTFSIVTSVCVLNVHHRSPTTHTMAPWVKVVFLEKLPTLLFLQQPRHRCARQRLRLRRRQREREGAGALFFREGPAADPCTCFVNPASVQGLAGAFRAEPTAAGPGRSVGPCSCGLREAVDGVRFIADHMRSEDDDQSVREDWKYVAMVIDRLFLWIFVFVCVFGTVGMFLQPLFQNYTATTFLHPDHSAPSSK

In the case of `CCCCCCCCCC[n+]1ccc2c(c1)[C@@H]1[C@H](CC2)CCN1C.[I-]` (relative stereo) [ACD, cis-8-decyl-1-methyl-2,3,3a,4,5,9b-hexahydro-1H-pyrrolo[3,2-h]isoquinolin-8-ium iodide], in test [1], the “Affinity for the [3H]-NIC binding site (in words)” value (from here on “Affinity”) was “lost their ability to interact with this binding site”. Moreover, in test [2], the remaining activity at 10 µM turned out to be 102%. Further, the “Specific binding of [3H]-NIC in the presence of compound” value (shortened to “Specific binding of [3H]-NIC”) is recorded as 50.3 ± 3.7 fmol/mg of protein in test [3] (compound 1 μM), 52.1 ± 2.6 fmol/mg of protein in test [3] (compound 10 μM) and 37.0 ± 1.7 fmol/mg of protein in test [3] (compound 100 μM).

For `CCCCCCCCCCCC[n+]1ccc2c(c1)[C@@H]1[C@H](CC2)CCN1C.[I-]` (relative stereo) [ACDD, cis-8-dodecyl-1-methyl-2,3,3a,4,5,9b-hexahydro-1H-pyrrolo[3,2-h]isoquinolin-8-ium iodide], the remaining activity at 10 µM in test [2] turned out to be 102%. Besides, the “Specific binding of [3H]-NIC” value in test [3] (compound 1 μM) is 49.5 ± 0.7 fmol/mg of protein; in test [3] (compound 10 μM), 49.8 ± 2.9 fmol/mg of protein; in test [3] (compound 100 μM), 44.5 ± 1.7 fmol/mg of protein.

As for `CCCCCCCCC[n+]1ccc2c(c1)[C@@H]1[C@H](CC2)CCN1C.[I-]` (relative stereo) [ACN, cis-1-methyl-8-nonyl-2,3,3a,4,5,9b-hexahydro-1H-pyrrolo[3,2-h]isoquinolin-8-ium iodide], the remaining activity at 10 µM in test [2] came to 101%. Also, the entries for the “Specific binding of [3H]-NIC” value in test [3] (compound 1 μM), in test [3] (compound 10 μM) and in test [3] (compound 100 μM) were 49.8 ± 3.6 fmol/mg of protein, 48.9 ± 2.9 fmol/mg of protein and 30.2 ± 2.2 fmol/mg of protein, respectively.

Consider `CCCCCCCC[n+]1ccc2c(c1)[C@@H]1[C@H](CC2)CCN1C.[I-]` (relative stereo) [ACO, cis-1-methyl-8-octyl-2,3,3a,4,5,9b-hexahydro-1H-pyrrolo[3,2-h]isoquinolin-8-ium iodide], for which, in test [1], the “Affinity” value is “much lower affinity for the [^3H]-NIC binding site compared to NONI”. Further, the remaining activity at 10 µM in test [2] is 91.5%. Moreover, the “Specific binding of [3H]-NIC” value in test [3] (compound 1 μM) is 44.5 ± 0.4 fmol/mg of protein; in test [3] (compound 10 μM), 42.2 ± 0.5 fmol/mg of protein; in test [3] (compound 100 μM), 30.2 ± 6.9 fmol/mg of protein.

For the compound `CCCCCCCCCCC[n+]1ccc2c(c1)[C@@H]1[C@H](CC2)CCN1C.[I-]` (relative stereo) [ACU, cis-1-methyl-8-undecyl-2,3,3a,4,5,9b-hexahydro-1H-pyrrolo[3,2-h]isoquinolin-8-ium iodide], the remaining activity at 10 µM in test [2] came out at 100%. In addition, the “Specific binding of [3H]-NIC” value in test [3] (compound 1 μM) is listed as 51.3 ± 2.0 fmol/mg of protein; in test [3] (compound 10 μM) it was 49.0 ± 0.3 fmol/mg of protein; in test [3] (compound 100 μM), 42.7 ± 2.1 fmol/mg of protein.

With `CCCCCCCCCCCC[n+]1cccc2c1CCC1CCN(C)C21` (stereo not drawn) [BCDD, cis-6-dodecyl-1-methyl-2,3,3a,4,5,9b-hexahydro-1H-pyrrolo[2,3-f]isoquinolin-6-ium iodide], in test [2], the remaining activity at 10 µM was 94.2%. For the same compound, the “Specific binding of [3H]-NIC” value is given as 43.7 ± 4.5 fmol/mg of protein in test [3] (compound 1 μM), 43.0 ± 4.7 fmol/mg of protein in test [3] (compound 10 μM) and 34.0 ± 2.1 fmol/mg of protein in test [3] (compound 100 μM).

Regarding `CCCCCCCCCC[n+]1cccc2c1CCC1CCN(C)C21` (stereo not shown) [BCD], in test [1], the “Affinity” value is “lost their ability to interact with this binding site”. The remaining activity at 10 µM in test [2] turned out to be 96.2%. In addition, the “Specific binding of [3H]-NIC” value in test [3] (compound 1 μM) is given as 54.9 ± 0.7 fmol/mg of protein; in test [3] (compound 10 μM), 54.4 ± 1.1 fmol/mg of protein; in test [3] (compound 100 μM) it was 47.9 ± 2.8 fmol/mg of protein.

As for `CCCCCCCCC[n+]1cccc2c1CCC1CCN(C)C21` (stereo not drawn) [BCN, cis-1-methyl-6-nonyl-2,3,3a,4,5,9b-hexahydro-1H-pyrrolo[2,3-f]isoquinolin-6-ium iodide], the remaining activity at 10 µM in test [2] was 94%. Further, the figures for the “Specific binding of [3H]-NIC” value in test [3] (compound 1 μM), in test [3] (compound 10 μM) and in test [3] (compound 100 μM) were 49.6 ± 1.2 fmol/mg of protein, 47.7 ± 2.1 fmol/mg of protein and 36.2 ± 0.3 fmol/mg of protein, respectively.

On to `CCCCCCCC[n+]1cccc2c1CCC1CCN(C)C21` (stereo not shown) [BCO], for which, in test [1], the “Affinity” value was “much lower affinity for the [^3H]-NIC binding site compared to NONI”. For the same compound, the remaining activity at 10 µM in test [2] was found to be 93.6%. Further, the “Specific binding of [3H]-NIC” value in test [3] (compound 1 μM) is on record as 50.5 ± 1.2 fmol/mg of protein; in test [3] (compound 10 μM), 39.7 ± 1.4 fmol/mg of protein; in test [3] (compound 100 μM), 13.5 ± 0.5 fmol/mg of protein.

In the case of `CCCCCCCCCCC[n+]1cccc2c1CCC1CCN(C)C21` (stereo not shown) [BCU], the remaining activity at 10 µM in test [2] was 92.3%. Besides, the figures for the “Specific binding of [3H]-NIC” value in test [3] (compound 1 μM), in test [3] (compound 10 μM) and in test [3] (compound 100 μM) were 56.1 ± 0.6 fmol/mg of protein, 53.9 ± 1.2 fmol/mg of protein and 37.3 ± 1.8 fmol/mg of protein, respectively.

As for `CCCCCCCCCC[n+]1cccc([C@@H]2CCCN2C)c1.[I-]` [NDNI, reference compound], in test [3], the “Affinity” value is “high affinity”.

As to α-Bungarotoxin [reference compound], the Ki in test [2] was determined as 28.6 ± 5.4 nM.

The term remaining activity denotes the signal under treatment as a percentage of the control signal. A word on the Ki: it is the dissociation constant of the complex between target and ligand, obtained from inhibition or displacement.

(Values after US6503922B2, “Bridged nicotine compounds for use in the treatment of CNS pathologies” (priority 2000, dated 2003).)
